Source: patent US20240366626A1, “OPHTHALMIC PREPARATION FOR MYOPIA SUPPRESSION” (TSUBOTA LABORATORY, INC., priority 2021, published 2024)
“Also recorded” adds a separate entry of the source. Counter-ions that a name gives are not always drawn.

Test system: mouse myopia model
Test: Mouse myopia model (−30D lens on right eye, 0D on left), eye drops for three weeks; change in refractive index and axial length measured
Type: in vivo, mice (C57BL6/J)
Conditions: for myopia suppressing effect (overall conclusion): mouse myopia model, eye drops for three weeks; for change in refractive index / change in axial length: −30D lens eyes vs OD lens eyes after three weeks of eye drops, bunazosin two drops once or twice per day, unoprostone two drops once per day; for change in refractive index: infrared photorefractor; for change in axial length: spectral domain OCT
Experimental: The present inventors, with a focus on the fact that certain glaucoma ophthalmic preparations are effective in suppressing myopia progression, attempted to find myopia progression suppressing effects from existing glaucoma ophthalmic preparations. In the present application, glaucoma ophthalmic preparations were administered to a mouse myopia model, and an axial length and a refractive index were measured to evaluate whether the eye drops were effective in suppressing the progression of axial myopia.
Eye drops were continuously administered for three weeks, with phosphate buffered saline (PBS) eye drops as the control group and bunazosin eye drops as the test group. Bunazosin is the main ingredient of a Detantol ophthalmic solution, and bunazosin eye drops were administered using Detantol 0.01% ophthalmic solution (manufactured by Santen Pharmaceutical Co. Ltd., 1 mL contains 0.1 mg of bunazosin hydrochloride). The number of eye drops was two drops once per day and twice a day (two drops each in the morning and evening). The refractive index and the axial length of the mouse eyeball after three weeks were measured and the amounts of change were calculated.
The refractive values were measured by using an infrared photorefractor for mice (manufactured by Prof. Schaeffel, University of Tubingen). The axial lengths were measured by using spectral domain optical coherence tomography (Envisu R4310, manufactured by Leica).
Mice similar to those in Experiment 1 were used to induce myopia. Eye drops were continually administered for three weeks, with PBS eye drops as the control group and unoprostone eye drops as the test group. Unoprostone is the main ingredient of a Rescula ophthalmic solution, and unoprostone eye drops were administered (two drops once per day, per eye) with Rescula ophthalmic solution 0.12% (Nitto Medic Co., Ltd., 1 mL contains 1.2 mg of isopropyl unoprostone). The refractive index and the axial length of the mouse eyeball after three weeks were measured and the amounts of change were calculated. The refractive index measurement and the axial length measurement were the same as in Experiment 1.

[1] = two drops once per day vs twice a day, three weeks

SMILES	myopia suppressing effect (overall conclusion) (hydrochloride)	comparison of dosing frequency (once vs twice per day), axial length [1]	comparison of dosing frequency (once vs twice per day), refractive index [1]	change in refractive index	change in axial length	myopia suppressing effect (overall conclusion)
CCCC(=O)N1CCCN(c2nc(N)c3cc(OC)c(OC)cc3n2)CC1 [bunazosin, bunazosin hydrochloride]	exhibited a myopia-suppressing effect; also recorded: exhibits a myopia suppressing effect	no difference between one eye drop and two eye drops	one eye drop has a greater myopia suppressing effect than two eye drops	no significant difference between the eyes with the −30D lenses and the eyes with OD lenses	substantially no difference in the axial lengths between the two eyes	–
CCCCCCCC(=O)CC[C@@H]1[C@@H](C/C=C\CCCC(=O)OC(C)C)[C@@H](O)C[C@H]1O [unoprostone, isopropyl unoprostone]	–	–	–	both eyes became myopic and no myopia suppressing effect of the eye drops was confirmed	no significant difference in the axial lengths of the two eyes was confirmed	did not exhibit a myopia suppressing effect; also recorded: does not exhibit a myopia suppressing effect
